Measurements published in ChEMBL document CHEMBL5634160, “Synthesis, biological evaluation and action mechanism of 7H-[1,2,4] triazolo [3,4-b] [1,3,4] thiadiazine-phenylhydrazone derivatives as α-glucosidase inhibitors” (Eur J Med Chem, 2023).

What was measured:
[1] = target: T1, Alpha-glucosidase (Saccharomyces cerevisiae S288c, UniProt P53341+P38158+P07265); experiment: Inhibition of Saccharomyces cerevisiae alpha-glucosidase using nitrophenol-alpha-D-glucopyranoside (pNPG) as substrate incubated for 15 mins; type: protein assay
[2] = system: CYP3A4; experiment: Inhibition of CYP3A4 in rat liver microsomes assessed as remaining activity at 100 uM measured after 30 mins by LC-MS/MS analysis; type: ADME, Microsome; conditions: read-out: Activity
[3] = target: T2, Alpha-glucosidase (Saccharomyces cerevisiae S288c) (UniProt P53341+P38158+P07265); experiment: Binding affinity to Saccharomyces cerevisiae alpha-glucosidase assessed as decrease in protein stability by measuring alpha-helix structure at 7.5 uM measured after 5 mins by CD spectrum assay (reference value: 84.50%); design: scale not given: the % may be the effect or the level left
[4] = target: T2, Alpha-glucosidase (Saccharomyces cerevisiae S288c); experiment: Binding affinity to Saccharomyces cerevisiae alpha-glucosidase assessed as decrease in protein stability by measuring beta-sheet structure at 15 uM measured after 5 mins by CD spectrum assay (reference value: 4.30%); design: scale not given: the % may be the effect or the level left
[5] = target: T2, Alpha-glucosidase (Saccharomyces cerevisiae S288c); experiment: Binding affinity to Saccharomyces cerevisiae alpha-glucosidase assessed as decrease in protein stability by measuring beta-turn structure at 5 uM measured after 5 mins by CD spectrum assay (reference value: 6.80%); design: scale not given: the % may be the effect or the level left
[6] = Cytotoxicity against human HEK293 cells assessed as cell viability at 100 uM measured after 24 hrs by MTT assay relative to control; type: toxicity, cell-based; conditions: read-out: Activity
[7] = target: T2, Alpha-glucosidase (Saccharomyces cerevisiae S288c); experiment: Binding affinity to Saccharomyces cerevisiae alpha-glucosidase assessed as decrease in protein stability by measuring beta-sheet structure at 20 uM measured after 5 mins by CD spectrum assay (reference value: 4.30%); design: scale not given: the % may be the effect or the level left
[8] = target: T1, Alpha-glucosidase; experiment: Non-competitive inhibition of Saccharomyces cerevisiae alpha-glucosidase using nitrophenol-alpha-D-glucopyranoside (pNPG) as substrate at 24 to 48 uM measured after 15 mins by Lineweaver-Burk plot analysis; type: protein assay
[9] = target: T2, Alpha-glucosidase (Saccharomyces cerevisiae S288c); experiment: Binding affinity to Saccharomyces cerevisiae alpha-glucosidase assessed as decrease in protein stability by measuring beta-turn structure at 20 uM measured after 5 mins by CD spectrum assay (reference value: 6.80%); design: scale not given: the % may be the effect or the level left
[10] = Cytotoxicity against human HEK293 cells assessed as cell viability at 150 uM measured after 24 hrs by MTT assay relative to control; type: toxicity, cell-based; conditions: read-out: Activity
[11] = Cytotoxicity against human HEK293 cells assessed as cell viability at 200 uM measured after 24 hrs by MTT assay relative to control; type: toxicity, cell-based; conditions: read-out: Activity
[12] = system: Mus musculus; experiment: Anti-diabetic activity against 16 hrs fasted male Kunming mouse assessed as AUC of postprandial blood glucose at 20 mg/kg, IG after 30 mins […] of sucrose administered and measured upto 2 hrs by sucrose tolerance test (reference value: 810.40 +/- 75.53 mM.min); type: functional, organism-based
[13] = target: T2, Alpha-glucosidase (Saccharomyces cerevisiae S288c); experiment: Binding affinity to Saccharomyces cerevisiae alpha-glucosidase assessed as decrease in protein stability by measuring beta-turn structure at 7.5 uM measured after 5 mins by CD spectrum assay (reference value: 6.80%); design: scale not given: the % may be the effect or the level left
[14] = target: T2, Alpha-glucosidase (Saccharomyces cerevisiae S288c); experiment: Binding affinity to Saccharomyces cerevisiae alpha-glucosidase assessed as quenching constant value (Kq) by fluorescence quenching study; type: protein assay
[15] = target: T2, Alpha-glucosidase (Saccharomyces cerevisiae S288c); experiment: Binding affinity to Saccharomyces cerevisiae alpha-glucosidase assessed as decrease in protein stability by measuring random coil structure at 7.5 uM measured after 5 mins by CD spectrum assay (reference value: 6.20%); design: scale not given: the % may be the effect or the level left
[16] = target: T2, Alpha-glucosidase (Saccharomyces cerevisiae S288c); experiment: Binding affinity to Saccharomyces cerevisiae alpha-glucosidase assessed as decrease in protein stability by measuring random coil structure at 20 uM measured after 5 mins by CD spectrum assay (reference value: 6.20%); design: scale not given: the % may be the effect or the level left
[17] = target: T2, Alpha-glucosidase (Saccharomyces cerevisiae S288c); experiment: Binding affinity to Saccharomyces cerevisiae alpha-glucosidase assessed as decrease in protein stability by measuring beta-sheet structure at 5 uM measured after 5 mins by CD spectrum assay (reference value: 4.30%); design: scale not given: the % may be the effect or the level left
[18] = target: T2, Alpha-glucosidase (Saccharomyces cerevisiae S288c); experiment: Binding affinity to Saccharomyces cerevisiae alpha-glucosidase assessed as decrease in protein stability by measuring random coil structure at 10 uM measured after 5 mins by CD spectrum assay (reference value: 6.20%); design: scale not given: the % may be the effect or the level left
[19] = system: CYP2C19; experiment: Inhibition of CYP2C19 in rat liver microsomes assessed as remaining activity at 100 uM measured after 30 mins by LC-MS/MS analysis; type: ADME, Microsome; conditions: read-out: Activity
[20] = target: T2, Alpha-glucosidase (Saccharomyces cerevisiae S288c); experiment: Binding affinity to Saccharomyces cerevisiae alpha-glucosidase assessed as quenching constant value (Ksv) by fluorescence quenching study; type: protein assay
[21] = target: T2, Alpha-glucosidase (Saccharomyces cerevisiae S288c); experiment: Binding affinity to Saccharomyces cerevisiae alpha-glucosidase assessed as quenching constant value (Ka) by fluorescence quenching study; type: protein assay
[22] = target: T2, Alpha-glucosidase (Saccharomyces cerevisiae S288c); experiment: Binding affinity to Saccharomyces cerevisiae alpha-glucosidase assessed as decrease in protein stability by measuring alpha-helix structure at 20 uM measured after 5 mins by CD spectrum assay (reference value: 84.50%); design: scale not given: the % may be the effect or the level left
[23] = target: T2, Alpha-glucosidase (Saccharomyces cerevisiae S288c); experiment: Binding affinity to Saccharomyces cerevisiae alpha-glucosidase assessed as decrease in protein stability by measuring alpha-helix structure at 5 uM measured after 5 mins by CD spectrum assay (reference value: 84.50%); design: scale not given: the % may be the effect or the level left
[24] = target: T2, Alpha-glucosidase (Saccharomyces cerevisiae S288c); experiment: Binding affinity to Saccharomyces cerevisiae alpha-glucosidase assessed as decrease in protein stability by measuring random coil structure at 15 uM measured after 5 mins by CD spectrum assay (reference value: 6.20%); design: scale not given: the % may be the effect or the level left
[25] = target: T2, Alpha-glucosidase (Saccharomyces cerevisiae S288c); experiment: Binding affinity to Saccharomyces cerevisiae alpha-glucosidase assessed as decrease in fluorescence intensity peak 2 by 3D spectra assay; type: protein assay; design: scale not given: the % may be the effect or the level left
[26] = target: T2, Alpha-glucosidase (Saccharomyces cerevisiae S288c); experiment: Binding affinity to Saccharomyces cerevisiae alpha-glucosidase assessed as decrease in protein stability by measuring random coil structure at 5 uM measured after 5 mins by CD spectrum assay (reference value: 6.20%); design: scale not given: the % may be the effect or the level left
[27] = system: Mus musculus; experiment: Anti-diabetic activity against 16 hrs fasted male Kunming mouse assessed as decrease in postprandial blood glucose at 20 mg/kg, IG after 30 mins […] of sucrose administered and measured upto 2 hrs by sucrose tolerance test; type: functional; conditions: po
[28] = target: T2, Alpha-glucosidase (Saccharomyces cerevisiae S288c); experiment: Binding affinity to Saccharomyces cerevisiae alpha-glucosidase assessed as decrease in protein stability by measuring beta-sheet structure at 10 uM measured after 5 mins by CD spectrum assay (reference value: 4.30%); design: scale not given: the % may be the effect or the level left
[29] = target: T2, Alpha-glucosidase (Saccharomyces cerevisiae S288c); experiment: Binding affinity to Saccharomyces cerevisiae alpha-glucosidase assessed as decrease in protein stability by measuring alpha-helix structure at 15 uM measured after 5 mins by CD spectrum assay (reference value: 84.50%); design: scale not given: the % may be the effect or the level left
[30] = target: T2, Alpha-glucosidase (Saccharomyces cerevisiae S288c); experiment: Binding affinity to Saccharomyces cerevisiae alpha-glucosidase assessed as decrease in protein stability by measuring beta-turn structure at 15 uM measured after 5 mins by CD spectrum assay (reference value: 6.80%); design: scale not given: the % may be the effect or the level left
[31] = system: CYP2D6; experiment: Inhibition of CYP2D6 in rat liver microsomes assessed as remaining activity at 100 uM measured after 30 mins by LC-MS/MS analysis; type: ADME, Microsome; conditions: read-out: Activity
[32] = target: T3, CYP1A2 (Rattus norvegicus, UniProt P04799); experiment: Inhibition of CYP1A2 in rat liver microsomes assessed as remaining activity at 100 uM measured after 30 mins by LC-MS/MS analysis; type: ADME, Microsome; conditions: read-out: Activity
T3 sequence (P04799 whole entry): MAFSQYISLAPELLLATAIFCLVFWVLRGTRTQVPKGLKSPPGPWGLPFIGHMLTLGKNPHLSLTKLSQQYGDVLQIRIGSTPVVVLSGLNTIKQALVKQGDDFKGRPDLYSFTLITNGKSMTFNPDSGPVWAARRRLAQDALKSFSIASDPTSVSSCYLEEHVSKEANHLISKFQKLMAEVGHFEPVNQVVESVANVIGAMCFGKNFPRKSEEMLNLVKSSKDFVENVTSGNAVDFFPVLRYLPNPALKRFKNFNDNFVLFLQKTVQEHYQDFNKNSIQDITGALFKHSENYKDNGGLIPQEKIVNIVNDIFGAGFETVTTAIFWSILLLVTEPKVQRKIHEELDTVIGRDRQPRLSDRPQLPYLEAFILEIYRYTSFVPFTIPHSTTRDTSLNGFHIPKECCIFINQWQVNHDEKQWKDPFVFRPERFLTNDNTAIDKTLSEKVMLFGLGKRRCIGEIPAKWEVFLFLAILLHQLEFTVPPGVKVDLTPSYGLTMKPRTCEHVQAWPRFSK

[33] = target: T2, Alpha-glucosidase (Saccharomyces cerevisiae S288c); experiment: Binding affinity to Saccharomyces cerevisiae alpha-glucosidase assessed as decrease in protein stability by measuring beta-sheet structure at 7.5 uM measured after 5 mins by CD spectrum assay (reference value: 4.30%); design: scale not given: the % may be the effect or the level left
[34] = target: T2, Alpha-glucosidase (Saccharomyces cerevisiae S288c); experiment: Binding affinity to Saccharomyces cerevisiae alpha-glucosidase assessed as decrease in fluorescence intensity at 0 to 45 uM by fluorescence quenching study relative to control; type: protein assay; design: scale not given: the % may be the effect or the level left; conditions: dose 0-45 µM
[35] = target: T2, Alpha-glucosidase (Saccharomyces cerevisiae S288c); experiment: Binding affinity to Saccharomyces cerevisiae alpha-glucosidase assessed as decrease in fluorescence intensity peak 1 by 3D spectra assay; type: protein assay; design: scale not given: the % may be the effect or the level left
[36] = target: T1, Alpha-glucosidase; experiment: Competitive inhibition of Saccharomyces cerevisiae alpha-glucosidase using nitrophenol-alpha-D-glucopyranoside (pNPG) as substrate at 24 to 48 uM measured after 15 mins by Lineweaver-Burk plot analysis; type: protein assay
[37] = Cytotoxicity against human HEK293 cells assessed as cell viability at 50 uM measured after 24 hrs by MTT assay relative to control; type: toxicity, cell-based; conditions: read-out: Activity
[38] = system: CYP2B6; experiment: Inhibition of CYP2B6 in rat liver microsomes assessed as remaining activity at 100 uM measured after 30 mins by LC-MS/MS analysis; type: ADME, Microsome; conditions: read-out: Activity
[39] = system: CYP2C9; experiment: Inhibition of CYP2C9 in rat liver microsomes assessed as remaining activity at 100 uM measured after 30 mins by LC-MS/MS analysis; type: ADME, Microsome; conditions: read-out: Activity
[40] = target: CYP2E1 (Rattus norvegicus, UniProt P05182); experiment: Inhibition of CYP2E1 in rat liver microsomes assessed as remaining activity at 100 uM measured after 30 mins by LC-MS/MS analysis; type: ADME, Microsome; conditions: read-out: Activity
CYP2E1, sequence (P05182 whole entry): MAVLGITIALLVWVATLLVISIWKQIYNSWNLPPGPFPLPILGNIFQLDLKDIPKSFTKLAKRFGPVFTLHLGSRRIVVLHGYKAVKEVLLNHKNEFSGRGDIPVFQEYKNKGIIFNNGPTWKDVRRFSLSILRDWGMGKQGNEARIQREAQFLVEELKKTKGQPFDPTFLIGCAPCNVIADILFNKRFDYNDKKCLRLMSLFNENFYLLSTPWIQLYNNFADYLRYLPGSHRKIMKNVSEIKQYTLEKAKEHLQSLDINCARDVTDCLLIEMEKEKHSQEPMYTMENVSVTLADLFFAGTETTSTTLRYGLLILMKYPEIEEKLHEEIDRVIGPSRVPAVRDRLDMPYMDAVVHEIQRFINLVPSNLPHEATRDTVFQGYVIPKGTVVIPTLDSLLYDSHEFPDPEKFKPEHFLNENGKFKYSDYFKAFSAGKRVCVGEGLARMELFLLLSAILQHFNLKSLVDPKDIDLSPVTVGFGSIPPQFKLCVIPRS

[41] = target: T2, Alpha-glucosidase (Saccharomyces cerevisiae S288c); experiment: Binding affinity to Saccharomyces cerevisiae alpha-glucosidase assessed as decrease in protein stability by measuring alpha-helix structure at 10 uM measured after 5 mins by CD spectrum assay (reference value: 84.50%); design: scale not given: the % may be the effect or the level left
[42] = target: T2, Alpha-glucosidase (Saccharomyces cerevisiae S288c); experiment: Binding affinity to Saccharomyces cerevisiae alpha-glucosidase assessed as decrease in protein stability by measuring beta-turn structure at 10 uM measured after 5 mins by CD spectrum assay (reference value: 6.80%); design: scale not given: the % may be the effect or the level left

COc1ccc(/C=N/Nc2nnc3n2N=C(c2ccccc2)CS3)cc1OC
IC50 [1]: 140.2 µM

COc1cc(/C=N/Nc2nnc3n2N=C(c2ccccc2)CS3)cc(OC)c1O
activity at 0.5 h, 100 µM [2]: 96.5%
Activity [3]: 63.4%
Activity [4]: 6.6%
Activity [5]: 10.1%
viability at 24 h, 100 µM [6]: 90.5%
Activity [7]: 7%
Ki [8]: 87.56 µM
Activity [9]: 11.6%
viability at 24 h, 150 µM [10]: 81.2%
viability at 24 h, 200 µM [11]: 71.6%
IC50 [1]: 31.23 µM
AUC [12]: 723 mM·min
Activity [13]: 10.6%
Kq [14]: 1.57 10^13L/mol
Activity [15]: 17.5%
Activity [16]: 21.2%
Activity [17]: 5.8%
Activity [18]: 18.4%
activity at 0.5 h, 100 µM [19]: 75.4%
KSV [20]: 1.57 10^5L/mol
Ka [21]: 3.16 10^4L/mol
Activity [22]: 57.3%
Activity [23]: 66.5%
Activity [24]: 19.7%
Activity [25]: 37.4%
Activity [26]: 16%
inhibition in vivo at 20 mg/kg [27]: 24.4%
Activity [28]: 6.3%
Activity [29]: 60.2%
Activity [30]: 11.2%
activity at 0.5 h, 100 µM [31]: 92.3%
activity at 0.5 h, 100 µM [32]: 77.7%
Activity [33]: 6.1%
Activity [34]: 87.7%
Activity [35]: 31.9%
Ki [36]: 40.46 µM
viability at 24 h, 50 µM [37]: 100%
activity at 0.5 h, 100 µM [38]: 98.7%
activity at 0.5 h, 100 µM [39]: 90.7%
activity at 0.5 h, 100 µM [40]: 92.6%
Activity [41]: 62.7%
Activity [42]: 10.8%
